# Results taken from patent publication US20190256827A1, “EPIGENOME EDITING SYSTEMS AND METHODS” (STC.UNM, priority 2017, published 2019).
# Legend:
# Type in all cases: cell-based, human
# [1] = tested on: IL1RN mRNA in HEK293T cells; test: qPCR of IL1RN mRNA levels (dCas9-PYL-HA, FLAG-ABI-P300, sgRNAs)
# Description: To study how IL1RN expression levels change, total RNAs from the cell lysates generated in the above experiment were purified and then subjected to qPCR analysis to quantify mRNA levels.
# Human embryonic kidney cell HEK293T (American Type Culture Collection, Manassas, Va.) was cultured in Dulbecco's modified Eagle's medium (DMEM) (Gibco) with 10% FBS (Atlanta Biologicals), 1× GlutaMax (Gibco, Thermo Fisher Scientific, Inc., Waltham, Mass.), and 1× penicillin/streptomycin (Pen/Strep; Gibco, Thermo Fisher Scientific, Inc., Waltham, Mass.). Cells (100,000/ml) were plated in 24-well or 10-cm cell culture plate the day before transfection. For each well of 24-well plate transfection, 500 ng of dCas9-PYL-HA, 420 ng of FLAG-ABI-P300, and a total amount of 200-ng mix of gRNAs, with a 50-ng per each gRNA, were mixed with 50×(v/w) Opti-MEM (Gibco, Thermo Fisher Scientific, Inc., Waltham, Mass.), then incubate with the same volume of 3 μg PEI-Opti-MEM solution for 20 minutes at room temperature. Then, 100 μL of PEI-combined plasmids were added to every single well of 24-well plate and cultured for 24 hours before experiments were performed. For a 10 cm plate, 1 mL of PEI-combined plasmids were needed. After six hours transfection, cells were washed and incubated for another 1-72 hours before experiments were performed.
# Total RNA was extracted using the EZNA Total RNA Kit I (Omega Bio-tek, Inc., Norcross, Ga.). qPCR reactions were performed on cDNA prepared from 1,000 ng of total cellular RNA using the High-Capacity cDNA Reverse Transcription Kit (Applied Biosystems Co., Thermo Fisher Scientific, Inc., Foster City, Calif.). TaqMan qPCR probes (Thermo Fisher Scientific, Inc., Waltham, Mass. IL1RN, Hs00893626; GRM2, Hs00968358; HBA, Hs00361191; MYOD1 Hs02330075; GAPDH, Hs99999905) and Fast Advanced Master Mix (Life Technologies Co., Co., Thermo Fisher Scientific, Inc., Carlsbad, Calif.) were used in multiplexed reactions and 384-well format in a 7900HT Fast Real-Time PCR System (Applied Biosystems Co., Thermo Fisher Scientific, Inc., Foster City, Calif.). All measurements were performed at least in triplicate. Data were analyzed using the SDS software, version 2.4 (Applied Biosystems Co., Thermo Fisher Scientific, Inc., Foster City, Calif.), by the ΔΔCt method: the Ct values of target gene were normalized to Ct values of GAPDH, the folds of target gene expression changes were normalized to experimental controls. Analyzed data are reported as the mean±s.e.m. for biological replicates. In ChIP assays, the Ct values of antibodies pulled down segments were normalized to the Ct values of 10% input.
# [2] = tested on: TIR1*/AID dimerization, inducible EGFP reporter in HEK293T cells; test: IAA-inducible EGFP transcriptional activation assay (GAL4DBD-TIR1* or GAL4DBD-TIR1^WT with VP16AD-AID); settings: with or without IAA for 24 hours
# Text: Based on sequence alignment analysis against Arabidopsis thaliana TIR1, a mutant form of Oryza sativa TIR1 (TIR1*) was engineered. TIR1* contained a double mutation, where glutamic acid residues at position 7 and position 10 were replaced with lysine residues (YFPEKVVKHIFSFL, SEQ ID NO:125) that inhibited the ability of TIR* to interact with the SCF complex. To test if TIR1* indeed no longer mediated IAA-induced degradation, but would still bind to AID in the presence of IAA, an IAA-inducible EGFP transcriptional activation assay was constructed. In this assay, EGFP would only be expressed when a functional transcriptional activator was reconstituted by IAA from the two split halves (a DNA binding domain, DBD, and an activation domain, AD, each linked to an IAA-dimerizable protein, TIR* and AID). DNA constructs were made that encoded fusion proteins of GAL4DBD-TIR1*, GAL4DBD-TIR1^WT (the mutant (TIR*) and the wild type TIR1 (TIR1^WT) fused to DBD from GAL4, respectively) and VP16AD-AID (AID fused to VP16 AD). If the AID fusion protein was degraded or the dimerization of TIR1 and AID was disrupted, no EGFP expression would occur. Either GAL4DBD-TIR1* or GAL4DBD-TIR1^WT was co-transfected with VP16AD-AID and an inducible EGFP reporter construct that contains 5×GALDBD binding sites into HEK293T cells with or without the addition of IAA for 24 hours.
# [3] = tested on: GAL4DBD-TIR1*/VP16AD-AID, inducible luciferase reporter in HEK293T cells; test: Inducible luciferase reporter assay, IAA-responsive system (orthogonality and reversibility)
# Description: To ensure that IAA and ABA could be used to independently control two histone modification editing events, the orthogonality between these two systems was tested. HEK293T cells were co-transfected with either GAL4DBD-TIR1*/VP16AD-AID (responsive to IAA) or GAL4DBD-ABI/VP16AD-PYL (responsive to ABA), and an inducible luciferase reporter construct. This was followed by treating cells with either IAA or ABA (or DMSO as a control) for 24 hours. […] To test the reversibility of IAA-induced dimerization, in which it was critical to achieve precise temporal control, HEK293T cells were co-transfected with GAL4DBD-TIR1*, VP16AD-AID, and an inducible luciferase expression construct, and then treated cells with 50 μM IAA for 24 hours. Cells were then washed with fresh media without IAA to remove the inducer (or no washing as a control). They were then harvested for luciferase assays after washing.
compound,measurement,setting,value
COc1cc(COC(=O)/C=C(C)\C=C\[C@@]2(O)C(C)=CC(=O)CC2(C)C)c([N+](=O)[O-])cc1OC [ABA-DMNB],"IL1RN mRNA expression with caged ABA, no UV light","[1]; 20 μM ABA-DMNB, not irradiated, vs DMSO",at levels of negative control (DMSO)
same,IL1RN mRNA levels after uncaging by UV light,[1]; ABA-DMNB uncaged by exposure to UV light,mRNA levels increased
"O=C(O)Cc1c[nH]c2ccccc12 [IAA, indole-3-acetic acid]",expression of EGFP,[2],Only the combination of the TIR1 mutant TIR* and the IAA addition induced the expression of EGFP
same,reversibility of IAA-induced luciferase expression after washing,"[3]; 50 μM IAA for 24 hours, then washed with fresh media without IAA",readily reversible
same,"luciferase expression, IAA-responsive system",[3]; treated with IAA or ABA or DMSO for 24 hours,Only the proper combination of inducer with corresponding binding proteins could induce luciferase expression
